We go through eleven compounds from ChEMBL document CHEMBL1201862, “PubChem BioAssay data set” (2004).

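48-hour exposure; five concentrations; linearly interpolated endpoints. At the GI50, growth is halved.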 Activity calls are given as the source filed them. Cut-off read from the data, not from the text of the source: active = GI50 up to about 1.1 µM and inactive = higher.

Some test systems named below: BT-549; NCI-H460; Malme-3M; PC-3; SK-MEL-2; T47D; Hs-578T; SW-620; ACHN; UACC-62; HT-29; 786-0; HCT-15; HOP-92; EKVX; KM12; HL-60; HCC 2998; CCRF-CEM; SF-539.
Holding throughout (test): growth of human tumour cells (NCI), 48 h

Take `NC1CCCCC1.O=P(O)(O)C(O)/C=C/c1ccccc1` (stereo not given): the GI50 in the experiment on BT-549, in the experiment with NCI-H460, in the experiment with Malme-3M, in the experiment with PC-3, in the experiment with SK-MEL-2 and in the experiment with T47D was > 100 µM (inactive) in each case. Further, the GI50 in the experiment on Hs-578T, in the experiment with SW-620, in the experiment with ACHN, in the experiment with UACC-62, in the experiment with HT-29 and with 786-0 was > 100 µM (inactive) throughout. Besides, the GI50 in the experiment with HCT-15 was above 100 µM; with HOP-92, > 100 µM (inactive); with EKVX, > 100 µM (inactive); in the experiment on KM12, > 100 µM (inactive); in the experiment with HL-60, > 100 µM (inactive); with HCC 2998, > 100 µM (inactive).
In the case of `COc1cc2c(cc1OCc1ccccc1)NC(=S)[C@@H]1CCCN1C2=S`, the GI50 is > 100 µM (inactive) in the experiment with BT-549; > 100 µM (inactive) in the experiment with NCI-H460; 71.6 µM (inactive) in the experiment on Malme-3M; > 100 µM (inactive) in the experiment on PC-3; > 100 µM (inactive) in the experiment on SK-MEL-2; 82.4 µM (inactive) in the experiment on T47D. In addition, the GI50 was 4.84 µM (inactive) with Hs-578T; > 100 µM (inactive) in the experiment on SW-620; > 100 µM (inactive) in the experiment with ACHN; > 100 µM (inactive) in the experiment with UACC-62; 18.2 µM (inactive) in the experiment with HT-29; > 100 µM (inactive) in the experiment with CCRF-CEM. For the same compound, the GI50 in the experiment on 786-0 was 88.1 µM (inactive); in the experiment with HCT-15, above 100 µM; in the experiment on HOP-92, 94 µM (inactive); in the experiment with EKVX, > 100 µM (inactive); with SF-539, 17.4 µM (inactive); with KM12, 30.1 µM (inactive). In the experiment on HCC 2998, the GI50 is > 100 µM (inactive).
As to `Nc1ccc2c(c1)NC(=O)[C@@H]1CCCN1C2=O`, the GI50 with BT-549 was > 100 µM (inactive); with NCI-H460, > 100 µM (inactive); with PC-3, > 100 µM (inactive); in the experiment with SK-MEL-2, > 100 µM (inactive); in the experiment with T47D, 96.6 µM (inactive); in the experiment on Hs-578T, > 100 µM (inactive). For the same compound, the GI50 in the experiment on SW-620, in the experiment on ACHN, in the experiment on UACC-62, in the experiment on HT-29, in the experiment on CCRF-CEM and in the experiment on 786-0 was > 100 µM (inactive) each time. The GI50 with HCT-15 was above 100 µM; with HOP-92 it was > 100 µM (inactive); in the experiment on EKVX, > 100 µM (inactive); in the experiment with SF-539 it was > 100 µM (inactive); in the experiment with KM12, > 100 µM (inactive); in the experiment on HL-60, > 100 µM (inactive). The GI50 in the experiment on HCC 2998 was > 100 µM (inactive).
As for `OC(c1ccc(C(F)(F)F)cc1)C(F)(F)c1nc2ccccc2o1` (stereo not given), the GI50 with BT-549, in the experiment with NCI-H460, with PC-3, in the experiment on SK-MEL-2, in the experiment on T47D and with Hs-578T was > 100 µM (inactive) in each case. For the same compound, the GI50 in the experiment on SW-620, in the experiment on ACHN, with UACC-62, in the experiment with HT-29, in the experiment on CCRF-CEM and with 786-0 was > 100 µM (inactive) in each case. Besides, the GI50 in the experiment on HCT-15 is above 100 µM; in the experiment with HOP-92, > 100 µM (inactive); with EKVX, > 100 µM (inactive); with SF-539, > 100 µM (inactive); with KM12 it was > 100 µM (inactive); with HL-60, > 100 µM (inactive). Besides, the GI50 in the experiment with HCC 2998 was > 100 µM (inactive).
In the case of `CCCCCCCCCCCCCCCCCCNc1ccn(C2OC(COP(=O)(O)OCC3OC(n4cc(C)c(=O)[nH]c4=O)CC3N=[N+]=[N-])C(O)C2O)c(=O)n1` (stereo not given), the GI50 was 19.7 µM (inactive) in the experiment with BT-549; 21 µM (inactive) in the experiment with NCI-H460; 16.9 µM (inactive) with Malme-3M; 8.81 µM (inactive) with PC-3; 22.8 µM (inactive) in the experiment on SK-MEL-2; 34.8 µM (inactive) with T47D. The GI50 with Hs-578T is 23 µM (inactive); in the experiment on SW-620 it was 22.5 µM (inactive); in the experiment with ACHN, 54 µM (inactive); in the experiment on UACC-62, 19.1 µM (inactive); in the experiment on HT-29 it was 19.2 µM (inactive); in the experiment on CCRF-CEM, 15.5 µM (inactive). The GI50 is 29.5 µM (inactive) in the experiment on 786-0; 18.8 µM with HCT-15; 59.6 µM (inactive) in the experiment with HOP-92; 26.3 µM (inactive) in the experiment on EKVX; 17.8 µM (inactive) in the experiment on SF-539; 20.3 µM (inactive) with KM12. In addition, the GI50 in the experiment with HCC 2998 is 15.1 µM (inactive).
On to `Nc1ccnc2c1ncn2[C@H]1C[C@H](O)[C@@H](CO)O1`, for which the GI50 with BT-549, in the experiment on NCI-H460, with PC-3, in the experiment on SK-MEL-2, in the experiment on T47D and in the experiment on Hs-578T was > 100 µM (inactive) throughout. In addition, the GI50 in the experiment with SW-620, with ACHN, with UACC-62, with HT-29, with CCRF-CEM and with 786-0 was > 100 µM (inactive) in each case. Besides, the GI50 was above 100 µM in the experiment on HCT-15; > 100 µM (inactive) in the experiment with HOP-92; > 100 µM (inactive) in the experiment with EKVX; > 100 µM (inactive) in the experiment with SF-539; > 100 µM (inactive) with KM12; > 100 µM (inactive) in the experiment on HL-60. Further, the GI50 with HCC 2998 is > 100 µM (inactive).
As to `c1ccc(/N=C2\c3ccccc3CN2c2ccccn2)nc1`, the GI50 was > 100 µM (inactive) with BT-549; 89.3 µM (inactive) in the experiment with NCI-H460; 70.1 µM (inactive) with PC-3; > 100 µM (inactive) in the experiment on SK-MEL-2; 17.5 µM (inactive) in the experiment on T47D; > 100 µM (inactive) with Hs-578T. Also, the GI50 is > 100 µM (inactive) in the experiment on SW-620; > 100 µM (inactive) with ACHN; > 100 µM (inactive) in the experiment on UACC-62; 34.2 µM (inactive) with HT-29; > 100 µM (inactive) with 786-0; above 100 µM in the experiment on HCT-15. For the same compound, the GI50 with HOP-92 is 15.7 µM (inactive); with EKVX it was > 100 µM (inactive); in the experiment on SF-539 it was > 100 µM (inactive); in the experiment with KM12, > 100 µM (inactive); in the experiment with HL-60, < 0.01 µM (active); in the experiment on HCC 2998, 37.8 µM (inactive).
Turning to `Cn1c2ccccc2c2c3c(c4c5ccccc5n(C5OC(CO)C(O)C(O)C5O)c4c21)C(=O)OC3=O` (stereo not given), the GI50 in the experiment on BT-549 is > 100 µM (inactive); with NCI-H460 it was > 100 µM (inactive); in the experiment on Malme-3M it was > 100 µM (inactive); in the experiment with PC-3, > 100 µM (inactive); with SK-MEL-2, > 100 µM (inactive); in the experiment on T47D, 52.2 µM (inactive). Besides, the GI50 in the experiment with Hs-578T, in the experiment with SW-620, in the experiment on ACHN, in the experiment with UACC-62, with HT-29 and in the experiment on CCRF-CEM was > 100 µM (inactive) throughout. Further, the GI50 was > 100 µM (inactive) in the experiment on 786-0; above 100 µM in the experiment on HCT-15; > 100 µM (inactive) in the experiment on HOP-92; > 100 µM (inactive) in the experiment on EKVX; > 100 µM (inactive) with SF-539; > 100 µM (inactive) in the experiment on KM12. In the experiment on HCC 2998, the GI50 is > 100 µM (inactive).
As to `O=C(OCc1ccccc1)N1CCNCCNCC1`, the GI50 in the experiment on BT-549, in the experiment with NCI-H460, in the experiment on PC-3, in the experiment on SK-MEL-2, in the experiment with T47D and in the experiment with Hs-578T was > 100 µM (inactive) throughout. In addition, the GI50 with SW-620, with ACHN, with UACC-62, in the experiment with HT-29, with CCRF-CEM and in the experiment with 786-0 was > 100 µM (inactive) throughout. Moreover, the GI50 in the experiment with HCT-15 is above 100 µM; in the experiment on HOP-92 it was > 100 µM (inactive); in the experiment on EKVX, > 100 µM (inactive); in the experiment with SF-539 it was > 100 µM (inactive); in the experiment on KM12, > 100 µM (inactive); in the experiment on HL-60 it was > 100 µM (inactive). For the same compound, the GI50 with HCC 2998 is > 100 µM (inactive).
For `COc1cc(CCC(=O)O)c2cc3ccccc3cc2c1O`, the GI50 with BT-549 is 17.1 µM (inactive); in the experiment with NCI-H460, 23.2 µM (inactive); in the experiment with Malme-3M, 18.4 µM (inactive); in the experiment on PC-3, 18.5 µM (inactive); with SK-MEL-2, 18.3 µM (inactive); with T47D, 14.6 µM (inactive). Besides, the GI50 in the experiment on Hs-578T is 39.6 µM (inactive); with SW-620, 21.4 µM (inactive); in the experiment on ACHN, 17.3 µM (inactive); with UACC-62 it was 18.4 µM (inactive); in the experiment with HT-29 it was 21.1 µM (inactive); with CCRF-CEM, 3.22 µM (inactive). Also, the GI50 in the experiment on 786-0 is 16.8 µM (inactive); in the experiment with HCT-15 it was 18.2 µM; in the experiment with HOP-92 it was 30.9 µM (inactive); in the experiment on EKVX it was 24.7 µM (inactive); with KM12 it was 20.5 µM (inactive); in the experiment on HL-60 it was 16.5 µM (inactive). The GI50 with HCC 2998 is 29 µM (inactive).
With `O=C(NCCN1CCCCC1)c1ccc(Br)cc1`, the GI50 in the experiment on BT-549, in the experiment on NCI-H460, in the experiment on Malme-3M, with PC-3, in the experiment on SK-MEL-2 and with T47D was > 100 µM (inactive) in each case. Moreover, the GI50 in the experiment on Hs-578T is > 100 µM (inactive); in the experiment with SW-620 it was > 100 µM (inactive); with ACHN, > 100 µM (inactive); in the experiment on HT-29, > 100 µM (inactive); in the experiment on 786-0, > 100 µM (inactive); with HCT-15, above 100 µM. The GI50 in the experiment with HOP-92 is > 100 µM (inactive); in the experiment with EKVX it was > 100 µM (inactive); in the experiment on KM12, > 100 µM (inactive); in the experiment on HL-60 it was 2.81 µM (inactive); with HCC 2998, > 100 µM (inactive).
